Test results from patent US20250134809A1, “A PHYTOACTIVE ENCAPSULATED FORMULATION FOR NEURODEGENERATIVE DISEASES” (Gidaa Life Sciences Pvt. Ltd., priority 2022, published 2025).

Assays:
Assay type in all cases: in vivo, rat
[1] = tested on: Alzheimer's Disease model (Aluminium Chloride induced), Wistar male rats; experiment: Morris water maze in AlCl3-induced Alzheimer's Disease model; conditions: G3 (Donepezil orally)
Experimental: (§1) This compound PHY-001 (Named as MAG XXI in Animal study by CEFTE) has also been subjected to in-vivo animal study at the animal study facility attached to SRMC (Sri Ramachandra Medical College) Hospital, Chennai. In this study, the therapeutic efficacy of this compound was evaluated against Alzheimer's Disease model, by inducing Alzheimer's like pathology by intra peritoneal administration of Aluminium Chloride (Established animal model for studying Alzheimer's disease and efficacy evaluation of a therapeutic intervention).
(§2) Based on the pilot study observations, a main study was conducted. Totally 30 Wistar male rats were used for the study. Animals were formed into five groups, Group 1-rats served as a control group, animals in group 2 to 5 were injected with AlCl3 intra-peritoneally once daily for four weeks.
The results of number of times crossed centre at Morris water maze and escape latency which is the […] the animal could find the platform and escape (in 3 minutes), are presented in table 1 & table 2.

[2] = tested on: Alzheimer's Disease model (Aluminium Chloride induced), Wistar male rats; experiment: Passive avoidance test in AlCl3-induced Alzheimer's Disease model; conditions: G3 (Donepezil orally)
Experimental: as §1, §2
Significant alteration in dark compartment movement at all weeks is noticed in G2 group when compared to G1 which elucidate the learning memory defect.

[3] = tested on: Alzheimer's Disease model (Aluminium Chloride induced), Wistar male rats; experiment: Elevated plus maze in AlCl3-induced Alzheimer's Disease model; conditions: G3 (Donepezil orally); for Elevated plus maze: No. of DF (defacation) / Elevated plus maze: No. of UP (urine pool): Latency period 3 minutes
Experimental: as §1, §2

Compound: COc1cc2c(cc1OC)C(=O)C(CC1CCN(Cc3ccccc3)CC1)C2 (stereo not shown) [Donepezil]
- times crossed centre and escape latency when compared to G2 [1]: significant elevation
- Escape latency (in 3 minutes): No. of times find platform and escape ([1]; WK 1): 3.33
- Morris water maze: No. of times crossed center in 1 minute (mean values) ([1]; WK 1): 2.5
- Escape latency (in 3 minutes): No. of times find platform and escape ([1]; WK 2): 2.67
- Morris water maze: No. of times crossed center in 1 minute (mean values) ([1]; WK 2): 2.67
- Escape latency (in 3 minutes): No. of times find platform and escape ([1]; WK 3): 3.33
- Morris water maze: No. of times crossed center in 1 minute (mean values) ([1]; WK 3): 2.83
- Escape latency (in 3 minutes): No. of times find platform and escape ([1]; WK 4): 3.5
- Morris water maze: No. of times crossed center in 1 minute (mean values) ([1]; WK 4): 3.33
- dark compartment movement when compared to G2 [2]: significant reversal
- Passive avoidance: latency to enter dark chamber (mean values) ([2]; WK 1): 31.83 s
- Passive avoidance: latency to enter dark chamber (mean values) ([2]; WK 2): 42 s
- Passive avoidance: latency to enter dark chamber (mean values) ([2]; WK 3): 45.33 s
- Passive avoidance: latency to enter dark chamber (mean values) ([2]; WK 4): 47 s
- Elevated plus maze: No. of DF (defacation) ([3]; WK 1): 1
- Elevated plus maze: No. of UP (urine pool) ([3]; WK 1): 0.5
- Elevated plus maze: No. of DF (defacation) ([3]; WK2): 0.5
- Elevated plus maze: No. of UP (urine pool) ([3]; WK2): 0.17
- Elevated plus maze: No. of DF (defacation) ([3]; WK 3): 1.17
- Elevated plus maze: No. of UP (urine pool) ([3]; WK 3): 1.33
- Elevated plus maze: No. of DF (defacation) ([3]; WK 4): 0.83
- Elevated plus maze: No. of UP (urine pool) ([3]; WK 4): 1.17
- Elevated plus maze: No. of entries in Closed arm ([3]; WK 1): 3.5
- Elevated plus maze: No. of entries in Open arm ([3]; WK 1): 0.33
- Elevated plus maze: No. of entries in Closed arm ([3]; WK 2): 4.17
- Elevated plus maze: No. of entries in Open arm ([3]; WK 2): 0.33
- Elevated plus maze: No. of entries in Closed arm ([3]; WK 3): 2.5
- Elevated plus maze: No. of entries in Open arm ([3]; WK 3): 0
- Elevated plus maze: No. of entries in Closed arm ([3]; WK 4): 2.67
- Elevated plus maze: No. of entries in Open arm ([3]; WK 4): 1.67
- number of entries in open arm and closed arm when compared to G2 ([3]; week 4): significant elevation
